Data: the NIST ThermoML archive (doi:10.1021/je500320c)
± gives the expanded uncertainty stated by the source.

Test: an = ratio of the nth substance listed
Conditions: 101 kPa, Liquid, a1 = 2

NC(N)=O [urea] + C[N+](C)(C)CCO.[Cl-]
Conditions	mass density [kg/m3]	viscosity [mPa·s]
298.15 K	1197.9 ± 0.9	1571 ± 260
303.15 K	1195.2 ± 0.9	953.7 ± 100
308.15 K	1192.7 ± 0.8	608.4 ± 54
313.15 K	1190.1 ± 0.8	403.2 ± 30
318.15 K	1187.5 ± 0.8	277.2 ± 17
323.15 K	1184.9 ± 0.8	195.9 ± 9.8
328.15 K	1182.3 ± 0.8	143.6 ± 5.6
333.15 K	1179.7 ± 0.8	107.7 ± 3.9
